Test results from PMC9916658, “Design and Synthesis of New Quinazolin-4-one Derivatives with Negative mGlu7 Receptor Modulation Activity and Antipsychotic-Like Properties” (International Journal of Molecular Sciences, 2023).

Legend:
Assay type in all cases: in vivo
[1] = Pharmacokinetics of ALX-171 after i.v. and p.o. administration; conditions: mouse, female BALB/c mice
[2] = test system: DOI-induced head twitches in mice; experiment: DOI-induced head twitch test
Description: The experiments were performed according to the procedure described in our previous studies. Briefly, to habituate mice to the experimental environment, each animal was transferred to a 12 cm (diameter) × 20 cm (height) glass cage lined with sawdust 30 min before treatment. Test compounds were administered intraperitoneally (i.p.) at doses of 2.5, 5, and 10 mg/kg body weight 60 min before the test was performed. The head twitch response (HTR) in mice was induced using DOI (2.5 mg/kg, i.p.). Immediately after treatment, the number of head twitches was counted during a 20 min session.

choice accuracy in rats = experiment: Spatial delayed alternation test
[3] = test system: prepulse inhibition in rats; experiment: Prepulse inhibition test
[4] = test system: recognition index in mice; experiment: Novel object recognition test
Description: This procedure was adapted from and performed as described in a previous paper. Habituation, training and test trials were performed in a black plastic rectangular arena (40 × 30 × 35 cm) illuminated with a light intensity of 335 lux. During the habituation trial (2 consecutive days), each animal was allowed to explore the arena for 10 min. The next day, during the training trial (T1), mice were placed in the arena and were presented with two identical objects (red glass cylinders; 6.5 cm in diameter and 4.5 cm high) for 5 min. After 1 h, animals were placed back into the arena for a 5 min test trial, during which one of the previously presented familiar objects was replaced with a novel object (a transparent glass elongated sphere-like object with an orange cap; 5.5 cm in diameter and 8.5 cm high). Time spent exploring (i.e., sniffing or touching) the familiar (Tfamiliar) and novel (Tnovel) objects was measured by a trained observer, and the recognition index (%) was calculated for each mouse [(Tnovel − Tfamiliar)/(Tfamiliar + Tnovel)] “×” 100.

AUC(0-t) ([1]; iv, brain, i.v. 3 mg/kg): 3.27 µM·h | Cmax ([1]; iv, brain, i.v. 3 mg/kg): 1850 nM | Tmax ([1]; iv, brain, i.v. 3 mg/kg): 0.25 h | half-life ([1]; iv, brain, i.v. 3 mg/kg): 3.41 h | AUC(0-t) ([1]; iv, plasma, i.v. 3 mg/kg): 2.91 µM·h | Cmax ([1]; iv, plasma, i.v. 3 mg/kg): 1590 nM | Tmax ([1]; iv, plasma, i.v. 3 mg/kg): 0.25 h | Vd ([1]; iv, plasma, i.v. 3 mg/kg): 7.63 L/kg | half-life ([1]; iv, plasma, i.v. 3 mg/kg): 2.26 h | bioavailability ([1]; plasma, oral, p.o. 5 mg/kg vs i.v. 3 mg/kg, read-out: F (peroral bioavailability)): 58% | AUC(0-t) ([1]; po, brain, p.o. 5 mg/kg): 2.97 µM·h | Cmax ([1]; po, brain, p.o. 5 mg/kg): 1360 nM | Tmax ([1]; po, brain, p.o. 5 mg/kg): 0.5 h | half-life ([1]; po, brain, p.o. 5 mg/kg): 2.95 h | AUC(0-t) ([1]; po, plasma, p.o. 5 mg/kg): 2.63 µM·h | Cmax ([1]; po, plasma, p.o. 5 mg/kg): 1090 nM | Tmax ([1]; po, plasma, p.o. 5 mg/kg): 0.5 h | half-life ([1]; po, plasma, p.o. 5 mg/kg): 3.08 h | choice accuracy, compound administered alone (choice accuracy in rats): no negative effect | disturbance of the PPI response, compound alone ([3]; highest investigated dose 10 mg/kg): ~ 50% | recognition index, compound alone (NOR) ([4]; naïve mice): no significant impact
Compound: COc1cccc(-c2ccc3nc(-c4ccccc4Cl)n(C)c(=O)c3c2)c1OC [ALX-171, 2-(2-chlorophenyl)-6-(2,3-dimethoxyphenyl)-3-methylquinazolin-4(3H)-one]
DOI-induced head twitches in mGlu7 knockout (KO) mice ([2]; mGlu7 KO mice): had no further effect | number of DOI-induced head shakes ([2]; mice, 2.5, 5, and 10 mg/kg i.p., vs control group): significantly attenuated | MK-801-induced disruptions in the number of alternations (choice accuracy in rats; highest dose tested 5 mg/kg): reversed | MK-801-induced decrease of prepulse inhibition ([3]; any of the investigated doses): no effect | MK-801-induced decrease in the recognition index (NOR) ([4]; mice, 1, 2.5, and 5 mg/kg): ameliorated
